SMILES strings stand for the structures.

For assay [1], the system named is L donovani. The experiment in a line: Amastigotes (AM) in mouse or human macrophages (mos), in-vitro. It is filed as cell-based. The following applies: Ld., Amastigote. From the text: (§1) Amastigotes of Leishmania can be cultivated in a wide range of mammalian cells, some of which may be used in in-vitro screens. These include (1) a Sticker dog sarcoma (fibroblast) cell line, (2) transformed rodent macrophage cell lines, (3) primary isolated mouse peritoneal macrophages (MP mo), and (4) human monocyte-derived macrophages (HM mo). The methods are similar for all models. Amastigote or promastigote infected cells are maintained in a medium containing the drug for 4-7 days, at 37 C for L. donovani and 33-35 C for L. major and L. mexicana. Drug activity is then assessed by counting (I) the number of infected host cells and/or (II) the number of amastigotes/100 host cells.
(§2) In-vitro and in-vivo models were used to test activities of a selection of many compounds. Those activities are summarized in Tables 1-3, showing variation between systems and species. Activities measured in the MP mo and HM mo models have shown the best correlation with results obtained in hamster and mouse models.

The subject of assay [2] is L major/L mexicana. Described as above. It is filed as cell-based. Conditions: Lm., Amastigote.
Text: as §1, §2

Assay [3] relates to T.b. brucei, T.b. gambiense and T.b. rhodesiense. In words: Isolated bloodstream trypomastigote (TRY) in-vitro screen. It is filed as cell-based. On the procedure: (§3) Primary screening for new trypanocides has made extensive use of rodent systems, in which host survival time is a simple indicator of drug activity. In-vitro screens have used a variety of trypomastigote types (see Table 3, below). […] Most early in-vitro screens employed a short test in which bloodstream trypomastigotes were isolated from an infected rodent and maintained for up to 24 h in a simple drug-containing media. Two significant modifications of this technique include maintaining isolated bloodstream trypomastigotes in drug-containing media for 3-4 hours at 37° C in micro-titre plates and their subsequent viability assessed by the uptake of radiolabelled precursors or motility and infectivity to mice.
In-vitro studies on isolated bloodstream trypomastigotes were also used in the rational biochemical approaches towards the chemotherapy of T. brucei infections involving inhibitors of carbohydrate catabolism salicyl hydroxamic acid plus glycerol), of polyamine synthesis (methylgyoxal bis-guanylhydrazone and - DFMO), and of surface coat glycoprotein synthesis (Tunicamycin). In these studies, activity of the compounds are shown in-vitro and in-vivo, whereas the sensitivity of isolated bloodstream trypomastigotes to toxic oxygen radicals generated by naphthoquinones was not shown by the parasites in mice. The activity of the standard anti-trypanosomals-melarsoprol, pentamidine and suramin and tested compounds according to the present invention in in-vitro systems is shown in Table 3.
as §2

Assay [4] relates to L donovani. In words: Leishmania mouse/hamster models, in-vivo. Also: key: - no/poor activity,; + fair/moderate activity,; ++ good/excellent activity. The following applies: Ld.
Text: as §2

Assay [5] concerns L major/L mexicana. The experiment in a line: Leishmania mouse/hamster models, in-vivo. Also: key: - no/poor activity,; + fair/moderate activity,; ++ good/excellent activity. Conditions: Lm.
Text: as §2

The subject of assay [6] is L donovani. The experiment in a line: Leishmania promastigote (PRO) in-vitro screen. Conditions: Ld. In kind it is cell-based.
Text: (§4) Following initial infection, the amastigote is the only form present in the mammalian host, surviving and dividing in various macrophage populations. Differences between the promastigote and amastigote in form and habitat are not matched by known biochemical dissimilarities. However, the drug susceptibility of the cultured promastigote, used in many early chemotherapy screens, contrasts markedly with that of the amastigote (see Table 1, below), most importantly to the clinically used pentavalent antimonials - sodium stibogluconate (Pentostam) and meglumine antimoniate (Glucantime).
as §1, §2

For assay [7], the system named is L major/L mexicana. In words: Leishmania promastigote (PRO) in-vitro screen. In kind it is cell-based. The following applies: Lm.
Text: as §4, §1, §2

Assay [8] concerns L donovani. In words: Amastigote-promastigote (AM-PRO) transformation, in-vitro. It is filed as cell-based. The following applies: Ld.
The subject of assay [9] is T.b. brucei, T.b. gambiense and T.b. rhodesiense. The experiment in a line: African trypanosomiasis mouse model, in-vivo. The protocol: as §3, §2
Assay [10] deals with L major/L mexicana. The experiment in a line: Amastigote-promastigote (AM-PRO) transformation, in-vitro. In kind it is cell-based. Conditions: Lm.
Assay [11] relates to L donovani. In words: Amastigotes (AM) in cell lines, in-vitro. Also: key: - no/poor activity,; + fair/moderate activity,; ++ good/excellent activity. It is filed as cell-based. The following applies: Ld., Amastigote.
Text: as §1, §2

Assay [12] has as its system L major/L mexicana. In words: Amastigotes (AM) in cell lines, in-vitro. Also: key: - no/poor activity,; + fair/moderate activity,; ++ good/excellent activity. It is filed as cell-based. The following applies: Lm., Amastigote.
Text: as §1, §2

Assay [13] deals with T.b. brucei, T.b. gambiense and T.b. rhodesiense. The experiment in a line: Cultivated bloodstream trypomastigote (TRY) in-vitro screen. In kind it is cell-based.
Text: Culture systems developed in the last decade have used mammalian cell feeder layers to support the growth of dividing populations of bloodstream trypomastigotes of T. brucei spp. Some of these systems have been used in chemotherapy studies, including; (1) bovine fibroblast culture - T. brucei models to test some standard and experimental compounds, (2) murine bone marrow culture - T.b. gambiense model to screen inosine analogues and platinum and hypolipidemic compounds, and (3) Microtus embryonic fibroblast culture (MEF) - T.b. rhodesiense model to test standard and experimental drugs. These systems give a good indication of in-vivo activity (see Table 3). They measure activity against dividing cells rather than specific macromolecular synthesis pathways and can be readily established in micro-titre plates. The MEF and bone marrow cell feeder layers can be used to grow a range of strains of T. brucei spp., offering the possibility of examining variations in drug susceptibility and resistance between strains. The presence of a feeder layer, however, limits the opportunities for the automation of these systems.
as §2

Another assay deals with HIV-I. In words: Experiment la(a): macrophage cells, HIV-I, p24 antigen capture radio-immunoassay. In kind it is cell-based. Conditions: for TITER: control titer 100000; for wells positive for HIV-I p24, LOG VIRUS DILUTION -1 / wells positive for HIV-I p24, LOG VIRUS DILUTION -2 / wells positive for HIV-I p24, LOG VIRUS DILUTION -3 / wells positive for HIV-I p24, LOG VIRUS DILUTION -4 / wells positive for HIV-I p24, LOG VIRUS DILUTION -5 / wells positive for HIV-I p24, LOG VIRUS DILUTION -6: duplicate runs. On the procedure:
Fresh macrophage cultures were obtained by incubation of mononuclear cells obtained from a leukopak directly in the wells of a microtiter plate having 6 wells per row. After removal of non-adherent cells, each row of the adherent macrophages was infected with 10-fold serial dilutions of HIV-I, with the use of polybrene to enhance uptake of the virus. After one to two hours, the virus inoculum was removed and replaced with fresh normal growth medium. The fresh medium for each row contained a particular concentration of AZT, dideoxy cytidine (ddC), or compound la, as indicated by the left-hand column of Table la(a). The first row of wells acted as a control, and to it was added fresh medium containing none of the three drugs. Medium levels were maintained for two to four weeks to allow replication of the virus to take place, with at least one complete fluid change to remove residual virus inoculum. The contents of each well were then tested for the level of HIV p24 antigen present using a commercially available antigen capture kit employing a radio-immunoassay which can detect as little as 10'^9gm of p24 present in a sample. The above procedure was done in duplicate runs.
The results were interpreted as follows: 2/2, for example, means that both the corresponding wells of both runs were positive for HIV-I p24, while 0/2 means that neither well was positive. The titers are given in the next to last column; where 1/2 wells was positive, an intermediate value was given to the titer that is half way between the two dilutions when calculated on a logarithmic scale. 3 µM IPA was positive in both wells at a dilution of 1/10,000 and in neither well at 1/100,000. Thus, one half log interval between 10^4 and 10^5 is 10^4.5, or 30,000.

A further assay relates to T lymphocytes. In words: Lymphocyte blastogenesis assay, T lymphocytes (PHA). It is filed as cell-based, human. The following applies: 100 - 1 µM (Figs. 11 and 12). The protocol: (§5) T and B lymphocytes from normal human donors were incubated for 30 minutes at various dose levels of the compounds indicated. The lymphocytes were added in triplicate wells in gentamicin and phytohemagglutinin (PHA) (a T cell mitogen), pokeweed mitogen (PWM) (a B cell mitogen) and allogeneic mononuclear cells (mixed leukocyte cultures; MLC) or media containing the above additives. The lymphocyte blastogenesis assay is described in detail below.
(§6) The data are represented as the mean of the three replicates. The results are presented in Charts la(e) (i) and la(e) (ii) (Figs. 1 and 2). […] A reduction of both T lymphocytes' abilities to proliferate was obtained when 100 u.M or greater concentrations of IPA was added to the cell cultures. Proliferative activity of T lymphocytes by 25% at the 30 u.M concentration of IPA in the experiment.
(§7) • 1. Mononuclear cells are separated from whole blood by differential centrifugation using a synthetic separation medium, or are thawed from a cryopreserved preparation. The cells are washed and resuspended in media (RPMI - 1640, L-Glutamine 2mM, Herpes Buffer 25mM, Gentamicin 50 ug/ml, Human AB Serum-heat inactivated (56°, 30°) 20%). • 2. A viable cell count is determined. • 3. Cell concentration is adjusted to 2 x 10^6 /ml in media. • 4. The cell suspension is added to wells of a 96-well flat bottom plate in 0.1 ml aliquots (2 x 10^5 cells). • 5. The selected mitogens and/or antigens (in media without serum) are added to the cells in the wells also in 0.1 ml aliquots. • 6. The cultures are incubated for 3-7 days (depending upon the mitogen or antigen) at 37° C in a humidified 5% C02 atmosphere. • 7. Six to eight hours before termination of cultures 0.05 ml (1 µCi) of ^3HTdR sp. act 6.7 Ci/mM (20 µCi/ml stock) is added to each well. • 8. At termination of cultures the cells are harvested onto strips of scintillation-grade fibreglass paper using a multiple sample harvester. • 9. Perforated disks from the fibreglass paper of the harvested cultures are placed each into scintillation vials to which is then added 5 ml of toluene based scintillation cocktail. • 10. The vials are counted in a liquid scintillation counter for one minute where the amount of incorporated ^3HTdR is determined.
(§8) net CPM = xCPM of mitogen/antigen cultures - xCPM of media cultures.

For another assay, the system named is B lymphocytes. In words: Lymphocyte blastogenesis assay, B lymphocytes (PWM). In kind it is cell-based, human. The protocol: as §5, §6, §7, §8

Turning to `N=C(N)c1ccc(OCCCCCOc2ccc(C(=N)N)cc2)cc1` [Pentamidine, pentamidine, reference compound], the “Activity, AM in mouse or human mos” value in the assay with L donovani [1] is “+”; in the assay with L major/L mexicana [2] it was “+ +”. The “activity, isolated bloodstream TRY” value in [3] was “+ +”. The entries for the “Activity, mouse/ hamster models” value in the assay on L donovani [4] and with L major/L mexicana [5] were “+” and “-”, respectively. The “Activity, PRO” value in the assay with L donovani [6] and with L major/L mexicana [7] was “+ +” each time. Further, the “Activity, AM-PRO transform-ation” value with L donovani [8] and with L major/L mexicana [10] was “+ +” in each case. Moreover, the “activity, mouse model” value in assay [9] was “+ +”. For the same molecule, the “Activity, AM in cell lines” value in the assay on L donovani [11] was “-”; in the assay with L major/L mexicana [12], “+”. The “activity, cultivated bloodstream TRY” value in [13] is reported as “+ +”.
Take `O.O.O.O.O.O.O.O.O.O=C([O-])[C@@H]1[O][Sb]2([O-])([O][Sb]34([OH])[O][C@H]([C@H](O)CO)[C@H]([O]3)[C@H](C(=O)[O-])[O]4)[O][C@H]([C@H](O)CO)[C@@H]1[O]2.[Na+].[Na+].[Na+]` [Sodium stibogluconate, sodium stibogluconate, reference compound]: the “Activity, AM in mouse or human mos” value in the assay on L donovani [1] and in the assay with L major/L mexicana [2] was “+ +” in each case. In addition, the “Activity, mouse/ hamster models” value in the assay with L donovani [4] was “+ +”. In the assay on L major/L mexicana [10], the “Activity, AM-PRO transform-ation” value is on record as “+ +”.
`Nc1ccn([C@H]2CC[C@@H](CO)O2)c(=O)n1` [ddC, dideoxycytidine, reference compound]: in the assay on HIV-I (Human immunodeficiency virus 1, Macrophage, drug 10 μM, titer relative to control, read-out: PERCENT OF CONTROL), the activity at 10 µM stood at 10%. In addition, the activity at 100 µM in the assay on HIV-I (Human immunodeficiency virus 1, Macrophage, drug 100 μM, titer relative to control, read-out: PERCENT OF CONTROL) was found to be 3%. Moreover, in the assay on HIV-I (drug 10 μM), the TITER is 10000; the “wells positive for HIV-I p24, LOG VIRUS DILUTION -1” value is 2/2; the “wells positive for HIV-I p24, LOG VIRUS DILUTION -2” value is 2/2; the “wells positive for HIV-I p24, LOG VIRUS DILUTION -3” value is listed as 2/2. Moreover, in the assay with HIV-I (drug 10 μM), the “wells positive for HIV-I p24, LOG VIRUS DILUTION -4” value is given as 1/2; the “wells positive for HIV-I p24, LOG VIRUS DILUTION -5” value is recorded as 0/2; the “wells positive for HIV-I p24, LOG VIRUS DILUTION -6” value is 0/2. In the assay on HIV-I (drug 100 μM), the TITER was 3000; the “wells positive for HIV-I p24, LOG VIRUS DILUTION -1” value is recorded as 2/2; the “wells positive for HIV-I p24, LOG VIRUS DILUTION -2” value is reported as 2/2; the “wells positive for HIV-I p24, LOG VIRUS DILUTION -3” value was 2/2. In the assay with HIV-I (drug 100 μM), the “wells positive for HIV-I p24, LOG VIRUS DILUTION -4” value is reported as 0/2; the “wells positive for HIV-I p24, LOG VIRUS DILUTION -5” value was 0/2; the “wells positive for HIV-I p24, LOG VIRUS DILUTION -6” value is 0/2. Also, in the assay with T lymphocytes, the “reduction in T lymphocyte function” value is recorded as 10 - 25%. For the same molecule, the “reduction in B lymphocyte proliferative responses” value in the assay with B lymphocytes (1 µM) was 20 -35%. In the assay on B lymphocytes (1000 u.M), the “reduction in B lymphocyte proliferative responses” value fell in the range of 80 to 85%.

(Values after patent EP0462621A2, “Use of particular compounds for manufacture of pharmaceutical formulations for treatment against various parasites, mycoplasmas, other indications and other infections” (Prendergast, Patrick Thomas, priority 1990, dated 1991).)
